Reference: ChEMBL document CHEMBL1909046, “DrugMatrix in vitro pharmacology data”
Where a SMILES comes first, the peptide text is derived from it. Bridges are numbered along the chain shown (N, C = ends). [ ]: non-standard residue; d: D form. The star is where a group is joined. Ileψ(thiazoline)Cys = CC[C@H](C)[C@H](N)C1=N[C@H](C(=O)*)CS1; dOrn = NCCC[C@@H](N)C(=O)O

Legend:
[1] = biological target: T1, C-C chemokine receptor type 4 (Homo sapiens, UniProt P51679); type: cell membranes, Membrane; conditions: chem-1; also: in other assays of this panel Not Active means under 50% inhibition at 10 µM
T1 sequence (P51679 whole entry): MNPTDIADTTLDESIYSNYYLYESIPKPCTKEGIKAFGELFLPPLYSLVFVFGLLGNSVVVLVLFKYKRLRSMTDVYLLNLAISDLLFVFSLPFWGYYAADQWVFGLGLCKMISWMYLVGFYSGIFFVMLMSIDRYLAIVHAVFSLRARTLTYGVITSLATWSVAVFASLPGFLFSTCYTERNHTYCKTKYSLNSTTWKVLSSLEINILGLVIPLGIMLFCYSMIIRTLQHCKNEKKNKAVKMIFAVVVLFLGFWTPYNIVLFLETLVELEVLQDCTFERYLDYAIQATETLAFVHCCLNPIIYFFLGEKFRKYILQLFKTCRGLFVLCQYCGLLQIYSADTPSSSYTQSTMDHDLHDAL

[2] = DRUGMATRIX: Glutamate, NMDA, Agonism radioligand binding (ligand: [3H] CGP-39653); type: cell membranes, Rattus norvegicus, Wistar, Cerebral cortex, Membrane; conditions: Not Active = under 50% inhibition at 10 µM
[3] = biological target: T2, Polyunsaturated fatty acid lipoxygenase ALOX15 (Oryctolagus cuniculus, UniProt P12530); assay: biochemical; type: tissue-based, Reticulocytes; conditions: reticulocytes;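 also: inhibition of 15-lipoxygenase enzyme activity measured with linoleic acid as the substrate; in other assays of this panel Not Active means under 50% inhibition at 10 µM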
T2 sequence (P12530 whole entry): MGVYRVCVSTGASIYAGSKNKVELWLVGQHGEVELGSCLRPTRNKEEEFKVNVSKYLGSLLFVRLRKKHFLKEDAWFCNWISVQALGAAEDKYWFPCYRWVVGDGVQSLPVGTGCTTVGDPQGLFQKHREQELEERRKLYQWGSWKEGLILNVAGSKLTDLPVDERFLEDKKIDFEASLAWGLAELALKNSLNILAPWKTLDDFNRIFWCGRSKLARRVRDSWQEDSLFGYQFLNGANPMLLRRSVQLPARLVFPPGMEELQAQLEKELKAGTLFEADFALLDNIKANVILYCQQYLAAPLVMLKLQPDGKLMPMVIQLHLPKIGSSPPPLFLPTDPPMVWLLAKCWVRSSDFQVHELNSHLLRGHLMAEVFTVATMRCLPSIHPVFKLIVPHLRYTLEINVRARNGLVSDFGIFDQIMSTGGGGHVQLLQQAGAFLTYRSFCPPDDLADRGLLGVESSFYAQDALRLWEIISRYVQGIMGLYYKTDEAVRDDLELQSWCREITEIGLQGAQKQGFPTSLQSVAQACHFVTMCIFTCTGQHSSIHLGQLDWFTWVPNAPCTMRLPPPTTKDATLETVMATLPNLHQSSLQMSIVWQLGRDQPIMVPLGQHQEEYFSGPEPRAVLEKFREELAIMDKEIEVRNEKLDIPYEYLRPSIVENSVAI

[4] = biological target: Kappa-type opioid receptor (Homo sapiens, UniProt P41145); assay: DRUGMATRIX: Opiate kappa (OP2, KOP) radioligand binding (ligand: [3H] Diprenorphine); type: cell membranes, HEK293, Membrane; conditions: hek293; Not Active = under 50% inhibition at 10 µM
[5] = biological target: Protein kinase C alpha type (Homo sapiens, UniProt P17252); type: cell-based; conditions: sf9;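 also: inhibition of PKCalpha kinase activity measured in an enzyme assay with histone as the phosphorylation substrate; in other assays of this panel Not Active means under 50% inhibition at 10 µM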
[6] = biological target: T3, Nitric oxide synthase, inducible (Mus musculus, UniProt P29477); set-up: species or system Escherichia coli;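 also: inhibition of iNOS enzyme activity measured with L-arginine as substrate; in other assays of this panel Not Active means under 50% inhibition at 10 µM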
T3 sequence (P29477 whole entry): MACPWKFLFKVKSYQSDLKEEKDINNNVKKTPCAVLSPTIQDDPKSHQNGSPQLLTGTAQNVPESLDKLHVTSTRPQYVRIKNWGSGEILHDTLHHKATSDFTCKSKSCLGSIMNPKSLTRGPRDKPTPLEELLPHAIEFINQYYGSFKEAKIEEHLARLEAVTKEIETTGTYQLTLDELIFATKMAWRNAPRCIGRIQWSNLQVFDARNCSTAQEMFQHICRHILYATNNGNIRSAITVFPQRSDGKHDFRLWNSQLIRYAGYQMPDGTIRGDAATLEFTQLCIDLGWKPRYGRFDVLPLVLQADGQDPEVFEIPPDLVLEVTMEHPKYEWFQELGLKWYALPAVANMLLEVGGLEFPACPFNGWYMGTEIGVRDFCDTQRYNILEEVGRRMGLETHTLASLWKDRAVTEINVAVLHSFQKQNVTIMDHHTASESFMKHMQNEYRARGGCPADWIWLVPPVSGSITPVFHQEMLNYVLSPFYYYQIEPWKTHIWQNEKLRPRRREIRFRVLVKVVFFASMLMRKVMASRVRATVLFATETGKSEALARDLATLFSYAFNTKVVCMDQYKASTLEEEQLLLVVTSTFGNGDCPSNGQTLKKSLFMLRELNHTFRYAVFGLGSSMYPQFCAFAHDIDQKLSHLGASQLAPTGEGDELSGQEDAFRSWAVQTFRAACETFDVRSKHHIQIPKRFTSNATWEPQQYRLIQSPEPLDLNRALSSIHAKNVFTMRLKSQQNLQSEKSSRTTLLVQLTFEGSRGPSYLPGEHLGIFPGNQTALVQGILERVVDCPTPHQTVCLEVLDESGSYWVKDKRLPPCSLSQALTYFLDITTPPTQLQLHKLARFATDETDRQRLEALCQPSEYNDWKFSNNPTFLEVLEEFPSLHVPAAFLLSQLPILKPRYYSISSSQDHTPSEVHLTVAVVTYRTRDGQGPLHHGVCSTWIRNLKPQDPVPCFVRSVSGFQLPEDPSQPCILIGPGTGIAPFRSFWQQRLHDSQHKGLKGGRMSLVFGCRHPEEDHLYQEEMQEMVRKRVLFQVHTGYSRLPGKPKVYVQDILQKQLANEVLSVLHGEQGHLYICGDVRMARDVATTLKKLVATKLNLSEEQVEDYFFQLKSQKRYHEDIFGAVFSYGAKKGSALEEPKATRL

[7] = biological target: T4, Muscarinic acetylcholine receptor M2 (Homo sapiens, UniProt P08172); type: cell membranes, CHO-K1, Membrane; conditions: cho-k1; also: in other assays of this panel Not Active means under 50% inhibition at 10 µM
T4 sequence (P08172 whole entry): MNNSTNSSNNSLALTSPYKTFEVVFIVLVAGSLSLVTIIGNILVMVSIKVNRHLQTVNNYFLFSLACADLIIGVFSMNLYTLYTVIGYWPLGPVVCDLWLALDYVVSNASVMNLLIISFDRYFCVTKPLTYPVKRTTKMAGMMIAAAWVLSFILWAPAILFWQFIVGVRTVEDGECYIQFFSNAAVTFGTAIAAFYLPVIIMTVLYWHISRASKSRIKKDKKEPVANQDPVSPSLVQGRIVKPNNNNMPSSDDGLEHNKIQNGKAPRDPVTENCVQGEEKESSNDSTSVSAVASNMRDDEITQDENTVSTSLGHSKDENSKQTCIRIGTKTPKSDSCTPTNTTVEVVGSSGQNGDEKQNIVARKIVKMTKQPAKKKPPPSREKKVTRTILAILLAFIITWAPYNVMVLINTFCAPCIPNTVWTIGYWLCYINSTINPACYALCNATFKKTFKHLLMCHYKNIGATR

Nitric oxide synthase 1 = Nitric oxide synthase 1 (Rattus norvegicus, UniProt P29476); type: tissue-based, Cerebellum; also: in other assays of this panel Not Active means under 50% inhibition at 10 µM
Chain of Nitric oxide synthase 1 (P29476 whole entry): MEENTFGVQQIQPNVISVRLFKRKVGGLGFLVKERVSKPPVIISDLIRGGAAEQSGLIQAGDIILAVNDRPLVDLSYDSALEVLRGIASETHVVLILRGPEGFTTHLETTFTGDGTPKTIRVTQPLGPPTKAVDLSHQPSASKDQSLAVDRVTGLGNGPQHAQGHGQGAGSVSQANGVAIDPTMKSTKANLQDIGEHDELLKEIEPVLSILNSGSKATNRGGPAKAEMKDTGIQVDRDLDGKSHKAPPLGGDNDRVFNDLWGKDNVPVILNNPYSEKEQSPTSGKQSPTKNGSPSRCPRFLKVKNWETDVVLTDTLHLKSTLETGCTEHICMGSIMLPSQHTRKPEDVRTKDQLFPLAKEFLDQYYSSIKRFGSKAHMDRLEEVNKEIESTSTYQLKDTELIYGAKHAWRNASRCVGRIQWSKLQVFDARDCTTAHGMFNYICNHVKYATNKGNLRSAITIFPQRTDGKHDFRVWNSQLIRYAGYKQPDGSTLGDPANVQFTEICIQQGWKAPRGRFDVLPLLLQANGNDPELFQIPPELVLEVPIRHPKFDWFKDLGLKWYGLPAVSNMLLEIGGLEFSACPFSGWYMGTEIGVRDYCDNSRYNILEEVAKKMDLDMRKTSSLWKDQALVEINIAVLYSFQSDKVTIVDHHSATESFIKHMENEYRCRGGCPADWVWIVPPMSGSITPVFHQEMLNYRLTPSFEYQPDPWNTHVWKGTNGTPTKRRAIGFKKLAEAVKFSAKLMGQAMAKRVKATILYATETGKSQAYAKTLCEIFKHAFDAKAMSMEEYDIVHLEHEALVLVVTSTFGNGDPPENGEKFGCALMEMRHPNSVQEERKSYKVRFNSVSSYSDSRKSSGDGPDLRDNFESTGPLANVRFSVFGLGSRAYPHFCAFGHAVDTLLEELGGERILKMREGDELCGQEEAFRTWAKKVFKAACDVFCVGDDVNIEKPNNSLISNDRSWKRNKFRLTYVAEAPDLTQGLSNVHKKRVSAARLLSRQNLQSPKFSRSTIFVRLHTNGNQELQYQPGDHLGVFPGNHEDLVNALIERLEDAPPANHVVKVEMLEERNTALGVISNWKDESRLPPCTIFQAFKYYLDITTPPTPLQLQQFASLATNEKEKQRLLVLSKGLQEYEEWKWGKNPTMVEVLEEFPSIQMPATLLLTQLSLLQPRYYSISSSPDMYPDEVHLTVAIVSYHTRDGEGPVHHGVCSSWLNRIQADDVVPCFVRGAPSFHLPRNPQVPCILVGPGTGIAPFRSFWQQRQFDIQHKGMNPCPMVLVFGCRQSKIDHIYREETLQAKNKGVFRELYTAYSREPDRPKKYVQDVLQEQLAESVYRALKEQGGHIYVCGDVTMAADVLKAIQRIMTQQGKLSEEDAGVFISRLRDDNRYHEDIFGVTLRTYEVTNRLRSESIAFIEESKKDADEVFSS

Chain of Kappa-type opioid receptor (P41145 whole entry): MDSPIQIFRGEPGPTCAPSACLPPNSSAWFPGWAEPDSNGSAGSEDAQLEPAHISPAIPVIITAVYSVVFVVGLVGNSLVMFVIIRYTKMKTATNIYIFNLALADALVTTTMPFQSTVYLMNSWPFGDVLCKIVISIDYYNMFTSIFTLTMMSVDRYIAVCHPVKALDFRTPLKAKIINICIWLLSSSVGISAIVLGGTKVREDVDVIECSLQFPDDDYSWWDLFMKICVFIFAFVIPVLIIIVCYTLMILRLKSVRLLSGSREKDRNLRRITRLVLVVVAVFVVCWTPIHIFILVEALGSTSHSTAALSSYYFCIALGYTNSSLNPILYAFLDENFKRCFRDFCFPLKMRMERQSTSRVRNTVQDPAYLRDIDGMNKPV

CC[C@H](C)[C@H](N)C1=N[C@H](C(=O)N[C@@H](CC(C)C)C(=O)N[C@H](CCC(=O)O)C(=O)N[C@H](C(=O)N[C@H]2CCCCNC(=O)[C@H](CC(N)=O)NC(=O)[C@@H](CC(=O)O)NC(=O)[C@H](Cc3cnc[nH]3)NC(=O)[C@@H](Cc3ccccc3)NC(=O)[C@H]([C@@H](C)CC)NC(=O)[C@@H](CCCN)NC2=O)[C@@H](C)CC)CS1 [BACITRACIN] ({Ileψ(thiazoline)Cys}-L[dE]IK[dOrn]I[dF]H[dD]N; lactam 4-C)
Not Active: IC50 [1] | IC50 [2] | Ki [2] | IC50 [3] | IC50 [4] | IC50 [5] | IC50 [6] | IC50 [7] | IC50 (Nitric oxide synthase 1)

Oc1c(Cl)cc(Cl)cc1Sc1cc(Cl)cc(Cl)c1O [BITHIONOL]
Not Active: IC50 [1] | IC50 [2] | Ki [2] | IC50 [3] | IC50 [4] | IC50 [5] | IC50 [6] | IC50 [7] | IC50 (Nitric oxide synthase 1)

CC(/C=C1\SC(=S)N(CC(=O)O)C1=O)=C\c1ccccc1
Not Active: IC50 [1] | IC50 [2] | Ki [2] | IC50 [3] | IC50 [4] | IC50 [5] | IC50 [6] | IC50 [7] | IC50 (Nitric oxide synthase 1)

CC(=O)O[C@]1(C(C)=O)CC[C@H]2[C@@H]3C=C(Cl)C4=CC(=O)CC[C@]4(C)[C@H]3CC[C@@]21C [CHLORMADINONE ACETATE]
Not Active: IC50 [1] | IC50 [2] | Ki [2] | IC50 [3] | IC50 [4] | IC50 [5] | IC50 [6] | IC50 [7] | IC50 (Nitric oxide synthase 1)

CN1CCC[C@H]1c1cccnc1 [NICOTINE]
Not Active: IC50 [1] | IC50 [2] | Ki [2] | IC50 [3] | IC50 [4] | IC50 [5] | IC50 [6] | IC50 [7] | IC50 (Nitric oxide synthase 1)

NCC[C@H](O)C(=O)N[C@@H]1C[C@H](N)[C@@H](O[C@H]2O[C@H](CN)[C@@H](O)[C@H](O)[C@H]2O)[C@H](O)[C@H]1O[C@H]1O[C@H](CO)[C@@H](O)[C@H](N)[C@H]1O [AMIKACIN]
Not Active: IC50 [1] | IC50 [2] | Ki [2] | IC50 [3] | IC50 [4] | IC50 [5] | IC50 [6] | IC50 [7] | IC50 (Nitric oxide synthase 1)

C=C1C(=O)O[C@@H]2C3O[C@]3(C)CC/C=C(\C)CC[C@@H]12 (stereo partly drawn)
Not Active: IC50 [1] | IC50 [2] | Ki [2] | IC50 [3] | IC50 [4] | IC50 [5] | IC50 [6] | IC50 [7] | IC50 (Nitric oxide synthase 1)

NCC1(CC(=O)O)CCCCC1 [GABAPENTIN]
Not Active: IC50 [1] | IC50 [2] | Ki [2] | IC50 [3] | IC50 [4] | IC50 [5] | IC50 [6] | IC50 [7] | IC50 (Nitric oxide synthase 1)

Brc1ccccc1 [BROMOBENZENE]
Not Active: IC50 [1] | IC50 [2] | Ki [2] | IC50 [3] | IC50 [4] | IC50 [5] | IC50 [6] | IC50 [7] | IC50 (Nitric oxide synthase 1)

CC(=O)CCCCn1c(=O)c2c(ncn2C)n(C)c1=O [PENTOXIFYLLINE]
Not Active: IC50 [1] | IC50 [2] | Ki [2] | IC50 [3] | IC50 [4] | IC50 [5] | IC50 [6] | IC50 [7] | IC50 (Nitric oxide synthase 1)

Cc1c(-c2ccccc2)oc2c(C(=O)OCCN3CCCCC3)cccc2c1=O [FLAVOXATE]
Not Active: IC50 [1] | IC50 [2] | Ki [2] | IC50 [3] | IC50 [4] | IC50 [5] | IC50 [6] | IC50 [7] | IC50 (Nitric oxide synthase 1)

C/C=C1\[C@H]2C=C(C)C[C@]1(N)c1ccc(=O)[nH]c1C2 [HUPERZINE A]
Not Active: IC50 [1] | IC50 [2] | Ki [2] | IC50 [3] | IC50 [4] | IC50 [5] | IC50 [6] | IC50 [7] | IC50 (Nitric oxide synthase 1)
